Laboratory results as given in patent US8980951B2, “Sesquiterpenes for antifungal applications” (Kansas State University Research Foundation, priority 2011, dated 2015).

System: A. nidulans, C. albicans, C. albicans 95-158 Flu-R, Cryp. neomormans, Candida krusei, and C. glabrata
Experiment: Fungicidal test, viability of treated fungal cells spotted on YPD agar
Type: cell-based
Conditions: after 72 h exposure

Compound | resistance in treated fungi
C=C1CC[C@H]2C(C)(C)CCC[C@]2(C)[C@H]1CO [Albicanol, (+)-albicanol] | not observed
CC1=CC[C@H]2C(C)(C)CCC[C@]2(C)[C@H]1CO [drimenol, (−)-drimenol] | not observed
